The source of these data is paper PMC4186431 (Pharmacology Research & Perspectives, 2013).

Each structure is given as a SMILES string. Where two headings read alike, the source gives them in different places.

One may read the Ki as a dissociation constant, usually derived from enzyme kinetics or from competition with a known ligand. The term IC50 denotes the midpoint of a concentration-inhibition curve.

Data set [1] concerns the target T1, human 5-HT7(a) receptor (Homo sapiens, UniProt P34969). The data set can be described thus: Membrane homogenate [^3H]-SB-269970 radioligand binding. The note with it: for Hill slope nH (membrane homogenate radioligand binding): [^3H]-SB-269970 competition, best fit model (nH = 1 or variable slope). The procedure: Cell membrane homogenate was prepared as previously described (Varin et al. [2010]). […] After incubation, the reactions were stopped by filtration in a harvester apparatus through GF/B filters pretreated with 0.25% (w/v) poly(ethyleneimine) solution. Filters were counted in a LS-6000LL beta counter (Beckman Coulter, Inc., Fullerton, CA, USA).
(§1) The data were analyzed using GraphPad Prism software v4.0 (GraphPad Software Inc., San Diego, CA). Receptor density (Bmax) and the dissociation constant (Kd) of the radioligand were determined by nonlinear regression curve fitting of saturation binding curves to a one-site binding (hyperbola) model. […] The IC50 values were determined by nonlinear regression curve fitting to sigmoidal dose–response or sigmoidal dose–response (variable slope) models, as indicated. […] Results are expressed as the mean values ± SEM from the number of independent experiments indicated. Prediction of log of octanol/water partition coefficient (xlog P) values were retrieved from ZINC database (http://zinc.docking.org/) (Irwin et al. [2012]).

In data set [2] the target is T1, human 5-HT7(a) receptor. The data set can be described thus: Whole-cell [^3H]-SB-269970 radioligand binding (in the presence of the compounds). The procedure: as §1
The target in data set [3] is T1, human 5-HT7(a) receptor. In words: Whole-cell [^3H]-SB-269970 radioligand binding (preincubation/washout experiments). The settings on record: for inhibition at 10 µM: read-out: Inhibition of specific binding of [^3H]-SB-269970 after preincubation and washout, 10 μmol/L, 30 min at 37°C, time t = 0 after washout. On the procedure:
After incubation for 30 min at 37°C, the assay was stopped, as previously described.
as §1

Data set [4] deals with T1, human 5-HT7(a) receptor. The data set can be described thus: cAMP assay, agonist effects in HEK-hu5-HT7 cells. In kind it is cell-based. The note with it: 100 pmol/L to 10 μmol/L, data not shown. The procedure: (§2) cAMP levels were quantified using the homogeneous time-resolved fluorescence (HTRF)-based cAMP dynamic kit (Cisbio, Bioassays, Codolet, France). […] In all cases, basal cAMP levels were determined in control wells in the absence of agonist. The effects of the compounds on forskolin-stimulated adenylate cyclase activity were evaluated either at a single concentration (parental HEK293 cells) or by using concentration–response curves (HEK-hu5-HT7 cells). Cells were incubated in the absence (control) or presence of the compounds, at the concentrations indicated, in assay buffer for 15 min at 37°C prior to the addition of forskolin and further incubation for 15 min. Basal cAMP levels were determined in control wells in the absence of forskolin. After proceeding with the subsequent assay steps according to the manufacturer's protocol, the fluorescence emission intensity ratio at 665/620 nm wavelength was measured in an Ultra Evolution 384 microplate reader (TECAN, Männedorf, Switzerland).

Data set [5] deals with T1, human 5-HT7(a) receptor. In words: 5-CT-stimulated cAMP assay in the presence of the compounds (antagonist curves, Schild analysis), HEK-hu5-HT7 cells. In kind it is cell-based. On the procedure:
as §2, with “forskolin.” for “forskolin. After proceeding with the subsequent assay steps according to the manufacturer's protocol, the fluorescence emission intensity ratio at 665/620 nm wavelength was measured in an Ultra Evolution 384 microplate reader (TECAN, Männedorf, Switzerland).”
(§3) The data were analyzed using GraphPad Prism software v4.0 (GraphPad Software Inc., San Diego, CA). Receptor density (Bmax) and the dissociation constant (Kd) of the radioligand were determined by nonlinear regression curve fitting of saturation binding curves to a one-site binding (hyperbola) model. […] The IC50 values were determined by nonlinear regression curve fitting to sigmoidal dose–response or sigmoidal dose–response (variable slope) models, as indicated. […] Results are expressed as the mean values ± SEM from the number of independent experiments indicated.
For orientation: Cyclic AMP is a second messenger, typically raised through Gs and lowered through Gi signalling.

Data set [6] has as its target T1, human 5-HT7(a) receptor. The data set can be described thus: 5-CT-stimulated cAMP assay, preincubation/washout experiments, HEK-hu5-HT7 cells. The class given is cell-based. The settings on record: read-out: IC50, irrev, 5-CT-stimulated cAMP production. On the procedure: (§4) After proceeding with the subsequent assay steps according to the manufacturer's protocol, fluorescence was measured as previously described.
as §3

Data set [7] has as its system forskolin-stimulated adenylate cyclase activity in HEK-hu5-HT7 cells. In words: Forskolin-stimulated cAMP production in the presence of the compounds, HEK-hu5-HT7 cells. The class given is cell-based. The settings on record: Homo sapiens; 10 μmol/L forskolin, continuous presence of the compounds; read-out: IC50, inhibition of forskolin-stimulated adenylate cyclase activity. On the procedure: as §2
The data were analyzed using GraphPad Prism software v4.0 (GraphPad Software Inc., San Diego, CA). Receptor density (Bmax) and the dissociation constant (Kd) of the radioligand were determined by nonlinear regression curve fitting of saturation binding curves to a one-site binding (hyperbola) model. […] Results are expressed as the mean values ± SEM from the number of independent experiments indicated. […]

Data set [8] has as its system forskolin-stimulated adenylate cyclase activity in parental HEK293 cells. In words: Forskolin-stimulated cAMP production in parental HEK293 cells. In kind it is cell-based, human. The note with it: 1 μmol/L or 10 μmol/L compound, parental HEK293 cells (Fig. 7 inset). The procedure: as §2
Data set [9] has as its system forskolin-stimulated adenylate cyclase activity in HEK-hu5-HT7 cells. The data set can be described thus: Forskolin-stimulated cAMP production, preincubation/washout experiments, HEK-hu5-HT7 cells. The class given is cell-based. The settings on record: Homo sapiens; 30 min preincubation, washout, then 10 μmol/L forskolin 15 min, n = 3; read-out: IC50, irrev, forskolin-stimulated adenylate cyclase activity. The procedure:
as §4, §3

In data set [10] the target is T2, human 5-HT7 receptors (Homo sapiens, UniProt P34969). In words: [^3H]-LSD binding in membrane homogenates of HEK-hu5-HT7 cells.
T2 sequence (P34969 1-445 isoform P34969-2): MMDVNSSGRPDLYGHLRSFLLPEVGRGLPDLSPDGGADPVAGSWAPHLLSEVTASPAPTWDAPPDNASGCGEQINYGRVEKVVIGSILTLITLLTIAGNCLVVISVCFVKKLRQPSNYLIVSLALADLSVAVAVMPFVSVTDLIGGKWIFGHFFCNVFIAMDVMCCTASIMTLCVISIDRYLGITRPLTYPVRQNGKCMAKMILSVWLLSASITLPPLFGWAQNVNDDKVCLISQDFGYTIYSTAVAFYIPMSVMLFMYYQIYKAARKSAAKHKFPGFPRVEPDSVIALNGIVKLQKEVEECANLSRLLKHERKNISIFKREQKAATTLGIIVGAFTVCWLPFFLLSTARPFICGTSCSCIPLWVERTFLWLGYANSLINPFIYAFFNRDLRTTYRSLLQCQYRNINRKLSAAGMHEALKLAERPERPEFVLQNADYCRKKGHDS
The subject of data set [11] is 5-HT1A. The data set can be described thus: Literature affinity for 5-HT1A receptors. In kind it is binding. The settings on record: reported 5-HT1A affinity versus 5-HT7 affinity of this study; ref Leopoldo et al. [2008].
Data set [12] deals with T2, human 5-HT7 receptors. The settings on record: estimated from experiments with behavior not compatible with classical competitive binding; ref Leopoldo et al. [2008]; cited from earlier work.
Data set [13] deals with 5-HT1A. The note with it: ref Leopoldo et al. [2008], cited from earlier work.
In a further data set the target is D2. The arrangement: method as in Leopoldo et al. [2008]. The settings on record: ref Leopoldo et al. [2008]; cited from earlier work.
Another data set concerns 5-HT7 receptors. The arrangement: method as in Lacivita et al. [2012]. The note with it: ref Lacivita et al. [2012]; cited from earlier work.
The next data set concerns the target rat 5-HT7 receptors. The arrangement: method as in Leopoldo et al. [2008]; Hedlund et al. [2010]. The settings on record: cloned in cell lines; ref Leopoldo et al. [2008]; Hedlund et al. [2010]; cited from earlier work.
For data set [14], the system named is isolated guinea pig ileum. The arrangement: method as in Leopoldo et al. [2008]. The note with it: ex vivo; ref Leopoldo et al. [2008]; cited from earlier work.
The subject of data set [15] is wild type and 5-HT7 knock-out mice. The arrangement: method as in Hedlund et al. [2010]. The settings on record: ref Hedlund et al. [2010]; cited from earlier work.
The test system of the next data set is mouse hippocampal slices. The arrangement: method as in Costa et al. [2012]. The note with it: ref Costa et al. [2012]; cited from earlier work.
In the next data set the test system is mice. The arrangement: method as in Adriani et al. [2012]. The settings on record: ref Adriani et al. [2012]; cited from earlier work.
Data set [16] relates to rat trigeminal nucleus caudalis. Also on record: method as in Martínez-García et al. [2011]. The settings on record: ref Martínez-García et al. [2011]; cited from earlier work.
On the set-up of data set [17]: method as in Hedlund et al. [2010]. The settings on record: mice; ref Hedlund et al. [2010]; cited from earlier work.

T1 sequence (P34969 1-445 isoform P34969-2): as above

Take `O=C(CCCCCN1CCN(c2ccccc2-c2ccccc2)CC1)NCc1ccccc1` [MEL-9, N-benzyl-4-(2-diphenyl)-1-piperazinehexanamide]: on human 5-HT7(a) receptor [1] (2 nmol/L [^3H]-SB-269970, HEK-hu5-HT7 membrane homogenate), the “5-HT7 affinity (membrane homogenate radioligand binding) pKi” value was 7.78. Also, the Ki at human 5-HT7(a) receptor [1] (2 nmol/L [^3H]-SB-269970, HEK-hu5-HT7 membrane homogenate, 60 min 37°C, read-out: 5-HT7 affinity (membrane homogenate radioligand binding) Ki) is 16.6 ± 0.99 nM; on human 5-HT7(a) receptor [2] (read-out: 5-HT7 affinity (whole-cell radioligand binding) Ki) it was 13.8 ± 0.24 nM; on human 5-HT7 receptors [10] (n = 3, data not shown, read-out: Ki, displacement of [^3H]-LSD binding), 37.9 ± 11.3 nM; at human 5-HT7 receptors [12], 0.8 nM; on 5-HT1A [13], 503 nM; at D2 it was 161 nM. In addition, the “Hill slope nH (membrane homogenate radioligand binding)” value at human 5-HT7(a) receptor [1] was determined as 1.34 ± 0.14. The IC50 at human 5-HT7(a) receptor [3] (30 min preincubation, washout, then 2 nmol/L radioligand) was determined as 22.4 ± 7.63 nM; on human 5-HT7(a) receptor [5] it was 27.8 ± 6.72 nM; on human 5-HT7(a) receptor [6] it was 41.8 ± 18 nM; in data set [7] it was 19.3 ± 8.18 nM; in data set [9], 11.2 ± 3.25 nM. For the same molecule, the inhibition at 10 µM at human 5-HT7(a) receptor [3] was determined as 97.2 ± 0.23%. For the same molecule, the “Agonist effect on cAMP levels” value on human 5-HT7(a) receptor [4] was “did not elicit any detectable increase in cAMP levels”. Further, the “Effect on forskolin-stimulated cAMP production in the parental cell line” value in data set [8] was “no effect”. Besides, the “nH, displacement of [^3H]-LSD binding” value on human 5-HT7 receptors [10] (data not shown) amounted to 1.11 ± 0.19. The “Fold lower affinity for 5-HT1A receptors than for 5-HT7 receptors” value in the data set with 5-HT1A [11] was 9.7 fold.
With `c1ccc(-c2ccccc2N2CCNCC2)cc1` [RA-7, 1-(2-biphenyl)piperazine], the remaining activity at 10 µM on human 5-HT7(a) receptor [2] (read-out: [^3H]-SB-269970 specific binding (percent of control), competitive whole-cell binding, 10 μmol/L, n = 3) was determined as 0.64 ± 0.44%. In addition, the “Inhibition of specific binding of [^3H]-SB-269970 after preincubation and washout” value on human 5-HT7(a) receptor [3] (10 μmol/L, 30 min at 37°C, time t = 0 after washout) is roughly 50%. Moreover, the “Duration of inhibition of [^3H]-SB-269970 binding after compound removal” value on human 5-HT7(a) receptor [3] (preincubation with 10 μmol/L, recovery followed at 0, 1, 3, 6 and 24 h) was “at least 24 h”. Further, the inhibition at 10 µM at human 5-HT7(a) receptor [3] came to 54.8 ± 5.15%. Besides, the “Action at 5-HT7 receptors in HeLa cells” value in the data set on 5-HT7 receptors is listed as “high-affinity receptor 5-HT7 antagonist”.
For the molecule `N#Cc1ccc(CNC(=O)CCCCCN2CCN(c3ccccc3-c3ccccc3)CC2)cc1` [LP-211, N-(4-cyanophenylmethyl)-4-(2-diphenyl)-1-piperazinehexanamide], the “Hill slope nH (membrane homogenate radioligand binding)” value at human 5-HT7(a) receptor [1] was determined as 1. The inhibition at 10 µM on human 5-HT7(a) receptor [3] was 95.03 ± 0.47%. The “Agonist effect on cAMP levels” value at human 5-HT7(a) receptor [4] was “did not elicit any detectable increase in cAMP levels”. For the same molecule, the IC50 was found to be 60.71 ± 0.48 nM in data set [7] and 13.9 ± 3.93 nM in data set [9]. Moreover, the “Effect on forskolin-stimulated cAMP production in the parental cell line” value in data set [8] is reported as “no effect”. Further, the figures for the Ki at rat 5-HT7 receptors, at 5-HT1A [13] (Hedlund et al. [2010]) and at D2 were 0.58 nM, 188 to 379 nM and 142 nM, respectively. Besides, the “Effect on substance P-induced contraction in isolated guinea pig ileum” value in [14] is on record as “elicited relaxation of substance P-induced contraction”. For the same molecule, the “Effect on body temperature in wild type and 5-HT7 knock-out mice” value in data set [15] is listed as “induced hypothermia in wild type but not in 5-HT7 knock-out mice”. For the same molecule, the “Effect on long-term synaptic depression induced by metabotropic glutamate receptors” value with mouse hippocampal slices is “reverted long-term synaptic depression”. For the same molecule, in the data set on mice, the “Behavioural effect in mice (anxiety)” value was “antianxiety-like effects”. Moreover, in data set [16], the “Effect on capsaicin-induced increase in Fos-like immunoreactivity” value was “able to modulate the capsaicin-induced increase”. Further, in [17], the “Metabolism in disposition studies” value was “undergoes N-dealkylation to RA-7”.
